# Where two headings read alike, the source gives them in different places.
# Experiments:
# OATP1B1/1B3 [1] = conditions: ref 17 (pitavastatin), 19 (CP-I); cited from earlier work
# Renal clearance = assay type: in vivo, human
# OATP1B1/1B3 [2] = assay type: in vivo, human
# [3] = after 20 mg and 75 mg CysA doses
# OATP1B1/1B3 [4] = conditions: cited from earlier work
# [5] = +CysA 20 mg, 1 h before probe cocktail
# [6] = otherwise (conditions other than rosuvastatin with 1-hour interval)
Compound,AUCR: AUC0-24 Geometric mean ratio +CysA/Control (90% CI) (OATP1B1/1B3 [2]; [5]),AUCR: AUC0-24 Geometric mean ratio +CysA/Control (90% CI) (OATP1B1/1B3 [2]; +CysA 75 mg (-1hr)),AUCR: AUC0-24 Geometric mean ratio +CysA/Control (90% CI) (OATP1B1/1B3 [2]; +CysA 75 mg (-3hr)),change of CLR by CysA (in words) (Renal clearance; [6]),hepatic extraction (PBPK model analysis) (OATP1B1/1B3 [1]),other results
coproporphyrin I [CP-I],,,,,0.28,
"CC1=C(CCC(=O)O)c2cc3nc(cc4[nH]c(cc5[nH]c(cc1n2)c(C)c5CCC(=O)O)c(CCC(=O)O)c4C)C(CCC(=O)O)=C3C.Cl.Cl [CP-III, Coproporphyrin III dihydrochloride]",,,,,,reduction of CLR by CysA (Renal clearance; CysA 75 mg): 24%
CCCCC(=O)N(Cc1ccc(-c2ccccc2-c2nnn[nH]2)cc1)[C@H](C(=O)O)C(C)C [valsartan],1.43,1.77,1.85,no significant change,,
"CC[C@@H]1NC(=O)[C@H]([C@H](O)[C@H](C)C/C=C/CO)N(C)C(=O)[C@H](C(C)C)N(C)C(=O)[C@H](CC(C)C)N(C)C(=O)[C@H](CC(C)C)N(C)C(=O)[C@@H](C)NC(=O)[C@H](C)NC(=O)[C@H](CC(C)C)N(C)C(=O)[C@H](C(C)C)NC(=O)[C@H](CC(C)C)N(C)C(=O)CN(C)C1=O [AM1, Cyclosporin AM1]",,,,,,Plasma concentrations relative to CysA (times lower) [3]: 10 times; inhibition of OATP1B1/1B3 (in words) (OATP1B1/1B3 [4]): inhibitor

# More lines, main results first:
AUCR: AUC0-24 Geometric mean ratio +CysA/Control (90% CI) (OATP1B1/1B3 [2]; [5]),AUCR: AUC0-24 Geometric mean ratio +CysA/Control (90% CI) (OATP1B1/1B3 [2]; +CysA 75 mg (-1hr)),AUCR: AUC0-24 Geometric mean ratio +CysA/Control (90% CI) (OATP1B1/1B3 [2]; +CysA 75 mg (-3hr)),change of CLR by CysA (in words) (Renal clearance; [6]),Compound,hepatic extraction (PBPK model analysis) (OATP1B1/1B3 [1]),other results
1.39,2.16,1.81,no significant change,CC(C)c1nc(N(C)S(C)(=O)=O)nc(-c2ccc(F)cc2)c1/C=C/[C@@H](O)C[C@@H](O)CC(=O)O [rosuvastatin],,change of CLR by CysA (in words) (Renal clearance; CysA administered with a 1-hour interval): decreased
1.64,3.46,2.38,,O=C(O)C[C@H](O)C[C@H](O)/C=C/c1c(C2CC2)nc2ccccc2c1-c1ccc(F)cc1 [pitavastatin],0.43,
